PubChem BioAssay AID1963826 (Molecular Pharmacology Branch, DTP, NCI, 2024)

Tested on: 926638-142-R-J1-PDC complex spheroid viability
Assay: Anticancer human tumor 926638-142-R-J1-PDC patient-derived endometrial carcinoma cell line growth inhibition [POLQ]
Details: for IC50: curve of first compound; for viability, T/C: stronger effect = lower value
Method in brief: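 Three-cell-type spheroids modelling solid tumor plus stroma served as the readout system; POL inhibitors were tested individually and in combination, concentration ranges set by clinical Cmax where known.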

[1] = second compound 0.0316 µM, first compound 0.0316 µM
[2] = second compound 0.0316 µM, first compound 0.1 µM
[3] = second compound 0.0316 µM, first compound 0.316 µM
[4] = second compound 0.0316 µM, first compound 1 µM
[5] = second compound 0.0316 µM, first compound 3.16 µM
[6] = second compound 0.0316 µM, first compound 10 µM
[7] = second compound 0.1 µM, first compound 0.0316 µM
[8] = second compound 0.1 µM, first compound 0.1 µM
[9] = second compound 0.1 µM, first compound 0.316 µM
[10] = second compound 0.1 µM, first compound 1 µM
[11] = second compound 0.1 µM, first compound 3.16 µM
[12] = second compound 0.1 µM, first compound 10 µM
[13] = second compound 0.316 µM, first compound 0.0316 µM
[14] = second compound 0.316 µM, first compound 0.1 µM
[15] = second compound 0.316 µM, first compound 0.316 µM
[16] = second compound 0.316 µM, first compound 1 µM
[17] = second compound 0.316 µM, first compound 3.16 µM
[18] = second compound 0.316 µM, first compound 10 µM
[19] = second compound 1 µM, first compound 0.0316 µM
[20] = second compound 1 µM, first compound 0.1 µM
[21] = second compound 1 µM, first compound 0.316 µM
[22] = second compound 1 µM, first compound 1 µM
[23] = second compound 1 µM, first compound 3.16 µM
[24] = second compound 1 µM, first compound 10 µM
[25] = second compound 3.16 µM, first compound 0.0316 µM
[26] = second compound 3.16 µM, first compound 0.1 µM
[27] = second compound 3.16 µM, first compound 0.316 µM
[28] = second compound 3.16 µM, first compound 1 µM
[29] = second compound 3.16 µM, first compound 3.16 µM
[30] = second compound 3.16 µM, first compound 10 µM
[31] = second compound 10 µM, first compound 0.0316 µM
[32] = second compound 10 µM, first compound 0.1 µM
[33] = second compound 10 µM, first compound 0.316 µM
[34] = second compound 10 µM, first compound 1 µM
[35] = second compound 10 µM, first compound 3.16 µM
[36] = second compound 10 µM, first compound 10 µM
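Also: spheroids exposed to drugs for one week before readout.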
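For viability, T/C in this document: percent viability relative to DMSO vehicle control wells set as 100%.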

Molecule COc1cc(C2c3cc4c(cc3C(OC3OC5COC(C)OC5C(O)C3O)C3COC(=O)C23)OCO4)cc(OC)c1O (centres undefined) + Cc1cccc(N(C)C(=O)C2C(O)CCN2c2nc(C)cc(C(F)(F)F)c2C#N)c1 has an IC50 (second compound 0.0316 µM) of over 10 µM, an IC50 (second compound 0.1 µM) of over 10 µM and an IC50 (second compound 0.316 µM) of over 10 µM. It also gave an IC50 (second compound 1 µM) of over 10 µM, an IC50 (second compound 3.16 µM) of over 10 µM and an IC50 (second compound 10 µM) of over 10 µM. For the same molecule, the viability, T/C [1] was 83.5%, the viability, T/C [2] was 62.5% and the viability, T/C [3] was 72%. It also gave a viability, T/C [4] of 73%, a viability, T/C [5] of 56% and a viability, T/C [6] of 60.1%. The viability, T/C [7] was 76.8%, the viability, T/C [8] was 71.4% and the viability, T/C [9] was 72.3%. The viability, T/C [10] was 62.7%, the viability, T/C [11] was 67.7% and the viability, T/C [12] was 56%. It also gave a viability, T/C [13] of 95.5%, a viability, T/C [14] of 84.1% and a viability, T/C [15] of 77%. For the same molecule, the viability, T/C [16] was 57.6%, the viability, T/C [17] was 63.9% and the viability, T/C [18] was 49.1%. For the same molecule, the viability, T/C [19] was 89.3%, the viability, T/C [20] was 80.8% and the viability, T/C [21] was 72.2%. For the same molecule, the viability, T/C [22] was 77.9%, the viability, T/C [23] was 67.8% and the viability, T/C [24] was 61.3%. The viability, T/C [25] was 75.8%, the viability, T/C [26] was 71.8% and the viability, T/C [27] was 69.9%. The viability, T/C [28] was 79.3%, the viability, T/C [29] was 62.7% and the viability, T/C [30] was 50.2%. The viability, T/C [31] was 80.1%, the viability, T/C [32] was 83.9% and the viability, T/C [33] was 73.6%. It also gave a viability, T/C [34] of 70.9%, a viability, T/C [35] of 59% and a viability, T/C [36] of 60.6%.
With O=c1[nH]cc(F)c(=O)[nH]1 + Cc1cccc(N(C)C(=O)C2C(O)CCN2c2nc(C)cc(C(F)(F)F)c2C#N)c1 the IC50 (second compound 0.0316 µM) was over 10 µM, the IC50 (second compound 0.1 µM) was over 10 µM and the IC50 (second compound 0.316 µM) was over 10 µM. For the same molecule, the IC50 (second compound 1 µM) was over 10 µM, the IC50 (second compound 3.16 µM) was over 10 µM and the IC50 (second compound 10 µM) was over 10 µM. The viability, T/C [1] was 106%, the viability, T/C [2] was 98.6% and the viability, T/C [3] was 96.6%. The viability, T/C [4] was 104%, the viability, T/C [5] was 89.5% and the viability, T/C [6] was 82.2%. The viability, T/C [7] was 111%, the viability, T/C [8] was 91.2% and the viability, T/C [9] was 110%. For the same molecule, the viability, T/C [10] was 82.1%, the viability, T/C [11] was 106% and the viability, T/C [12] was 71.4%. The viability, T/C [13] was 88.3%, the viability, T/C [14] was 80.2% and the viability, T/C [15] was 98.8%. The viability, T/C [16] was 83.5%, the viability, T/C [17] was 88.1% and the viability, T/C [18] was 75%. It also gave a viability, T/C [19] of 81.2%, a viability, T/C [20] of 104% and a viability, T/C [21] of 88.4%. The viability, T/C [22] was 97.5%, the viability, T/C [23] was 81.4% and the viability, T/C [24] was 81.5%. For the same molecule, the viability, T/C [25] was 98.7%, the viability, T/C [26] was 89.4% and the viability, T/C [27] was 82.7%. It also gave a viability, T/C [28] of 90.9%, a viability, T/C [29] of 91% and a viability, T/C [30] of 92.8%. The viability, T/C [31] was 81.5%, the viability, T/C [32] was 98.4% and the viability, T/C [33] was 90%. It also gave a viability, T/C [34] of 95.2%, a viability, T/C [35] of 107% and a viability, T/C [36] of 80.8%.
